Patent US20250171437A1 (Agios Pharmaceuticals,Inc., priority 2022, published 2025)

target: T1, human PAH with the R408W mutation (A375 R408W cells) (Homo sapiens, UniProt P00439, R408W); experiment: Cell Based Phenylalanine Flux Assay; conditions: A375 R408W cells; 24 hrs with compound, then 20 μM sepiapterin and 800 μM 13C9,15N-Phenylalanine for 4 hours; 13C-Tyrosine by LC-MS; average where tested multiple times
T1 construct: expressed in transfected cells
T1 sequence (P00439 1-452 R408W): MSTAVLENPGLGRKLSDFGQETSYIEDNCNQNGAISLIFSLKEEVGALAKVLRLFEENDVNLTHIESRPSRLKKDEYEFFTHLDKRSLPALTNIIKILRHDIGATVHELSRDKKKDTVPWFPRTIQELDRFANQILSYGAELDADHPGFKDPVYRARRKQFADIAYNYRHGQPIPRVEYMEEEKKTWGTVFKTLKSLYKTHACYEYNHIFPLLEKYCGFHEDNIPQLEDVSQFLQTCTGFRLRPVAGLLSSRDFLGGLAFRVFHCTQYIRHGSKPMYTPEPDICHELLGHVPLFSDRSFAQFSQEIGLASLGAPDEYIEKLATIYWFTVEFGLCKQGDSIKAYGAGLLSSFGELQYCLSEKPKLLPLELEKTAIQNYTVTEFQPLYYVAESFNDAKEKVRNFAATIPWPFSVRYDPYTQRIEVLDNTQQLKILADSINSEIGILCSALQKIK
Outline: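 Stable R408W PAH A375 cells: 24 h compound pretreatment in duplicate, then 4 h with 800 μM isotope-labelled Phe and 20 μM sepiapterin. Labelled Tyr output by LC-MS; AC50 averaged where repeated.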

`O=C(c1cnn2cc(Br)ccc12)N1CCc2[nH]cnc2[C@@H]1c1nc2cc(F)ccc2o1` [Example 70, (R)-(6-bromopyrazolo[1,5-a]pyridin-3-yl)(4-(5-fluorobenzo[d]oxazol-2-yl)-6,7-dihydro-1H-imidazo[4,5-c]pyridin-5(4H)-yl)methanone] and `CN(C)c1cn2ncc(C(=O)N3CCc4[nH]cnc4[C@@H]3c3nc4cc(F)ccc4o3)c2cc1Cl` [Example 208, (R)-(5-chloro-6-(dimethylamino)pyrazolo[1,5-a]pyridin-3-yl)(4-(5-fluorobenzo[d]oxazol-2-yl)-6,7-dihydro-1H-imidazo[4,5-c]pyridin-5(4H)-yl)methanone] fall in the same range of AC50: 1 to 5 µM for the first, 1 to 5 µM for the second.

Compared with `O=C(c1nnc(-c2ccn(C(F)F)n2)o1)N1CCc2[nH]cnc2[C@@H]1c1nc2cc(F)ccc2o1` [Example 114, (R)-(5-(1-(difluoromethyl)-1H-pyrazol-3-yl)-1,3,4-oxadiazol-2-yl)(4-(5-fluorobenzo[d]oxazol-2-yl)-6,7-dihydro-1H-imidazo[4,5-c]pyridin-5(4H)-yl)methanone], `O=C(c1nnc(-c2ccn(C(F)F)n2)o1)N1CCc2[nH]cnc2[C@H]1c1nc2cccc(C(F)(F)F)c2o1` [Example 854, (S)-(5-(1-(difluoromethyl)-1H-pyrazol-3-yl)-1,3,4-oxadiazol-2-yl)(4-(7-(trifluoromethyl)benzo[d]oxazol-2-yl)-6,7-dihydro-1H-imidazo[4,5-c]pyridin-5(4H)-yl)methanone] is lower in AC50: 1 to 5 µM for the first, at most 0.5 µM for the second.

`CC(F)(F)c1ncc(C(=O)N2CCc3[nH]cnc3[C@@H]2c2nc3cc(F)ccc3o2)s1` [Example 36, (R)-(2-(1,1-difluoroethyl)thiazol-5-yl)(4-(5-fluorobenzo[d]oxazol-2-yl)-6,7-dihydro-1H-imidazo[4,5-c]pyridin-5(4H)-yl)methanone] and `CCn1cnnc1C(=O)N1CCc2[nH]cnc2[C@@H]1c1nc2cc(F)ccc2o1` [Example 886, (R)-(4-ethyl-4H-1,2,4-triazol-3-yl)(4-(5-fluorobenzo[d]oxazol-2-yl)-6,7-dihydro-1H-imidazo[4,5-c]pyridin-5(4H)-yl)methanone] fall in the same range of AC50: 1 to 5 µM for the first, 1 to 5 µM for the second.

`O=C(c1nnc(-c2ccc(F)cc2F)o1)N1CCc2[nH]cnc2[C@H]1c1nc2cc(F)ccc2o1` [Example 84, (S)-(5-(2,4-difluorophenyl)-1,3,4-oxadiazol-2-yl)(4-(5-fluorobenzo[d]oxazol-2-yl)-6,7-dihydro-1H-imidazo[4,5-c]pyridin-5(4H)-yl)methanone] and `O=C(c1oc(-c2cccnc2)nc1C(F)F)N1CCc2[nH]cnc2[C@H]1c1nc2cc(F)ccc2o1` [Example 420, (S)-(4-(difluoromethyl)-2-(pyridin-3-yl)oxazol-5-yl)(4-(5-fluorobenzo[d]oxazol-2-yl)-6,7-dihydro-1H-imidazo[4,5-c]pyridin-5(4H)-yl)methanone] cannot be ordered by AC50: at most 0.5 µM for the first, at most 0.5 µM for the second.

`COCc1ccc2c(C(=O)N3CCc4[nH]cnc4[C@@H]3c3nc4c(F)cccc4o3)cnn2c1` [Example 276, (R)-(4-(4-fluorobenzo[d]oxazol-2-yl)-6,7-dihydro-1H-imidazo[4,5-c]pyridin-5(4H)-yl)(6-(methoxymethyl)pyrazolo[1,5-a]pyridin-3-yl)methanone] and `Cn1cc(-c2nnc(C(=O)N3CCc4[nH]cnc4[C@@H]3c3nc4c(F)cccc4o3)o2)cn1` [Example 198, (R)-(4-(4-fluorobenzo[d]oxazol-2-yl)-6,7-dihydro-1H-imidazo[4,5-c]pyridin-5(4H)-yl)(5-(1-methyl-1H-pyrazol-4-yl)-1,3,4-oxadiazol-2-yl)methanone] cannot be ordered by AC50: at least 5 µM for the first, 1 to 5 µM for the second.

`C[C@@H](O)c1nc(C(F)F)c(C(=O)N2CCc3[nH]cnc3[C@@H]2c2nc3c(F)cccc3o2)o1` [Example 230, (4-(difluoromethyl)-2-((R)-1-hydroxyethyl)oxazol-5-yl)((R)-4-(4-fluorobenzo[d]oxazol-2-yl)-6,7-dihydro-1H-imidazo[4,5-c]pyridin-5(4H)-yl)methanone] and `Cc1c(F)ccc2oc([C@H]3c4nc[nH]c4CCN3C(=O)c3ocnc3C(F)F)nc12` [Example 721, (R)-(4-(difluoromethyl)oxazol-5-yl)(4-(5-fluoro-4-methylbenzo[d]oxazol-2-yl)-6,7-dihydro-1H-imidazo[4,5-c]pyridin-5(4H)-yl)methanone] fall in the same range of AC50: 1 to 5 µM for the first, 1 to 5 µM for the second.

`O=C(c1ocnc1C(F)F)N1CCc2[nH]cnc2[C@@H]1c1nc2ccc(Br)cc2o1` [Example 146, (R)-(4-(6-bromobenzo[d]oxazol-2-yl)-6,7-dihydro-1H-imidazo[4,5-c]pyridin-5(4H)-yl)(4-(difluoromethyl)oxazol-5-yl)methanone] and `O=C(c1ocnc1CC(F)F)N1CCc2[nH]cnc2[C@@H]1c1nc2cccc(F)c2o1` [Example 864, (R)-(4-(2,2-difluoroethyl)oxazol-5-yl)(4-(7-fluorobenzo[d]oxazol-2-yl)-6,7-dihydro-1H-imidazo[4,5-c]pyridin-5(4H)-yl)methanone] cannot be ordered by AC50: 0.5 to 1 µM for the first, at most 0.5 µM for the second.

`O=C(c1ccnn1CC(F)F)N1CCc2[nH]cnc2[C@@H]1c1nc2cccc(F)c2o1` [Example 848, (R)-(1-(2,2-difluoroethyl)-1H-pyrazol-5-yl)(4-(7-fluorobenzo[d]oxazol-2-yl)-6,7-dihydro-1H-imidazo[4,5-c]pyridin-5(4H)-yl)methanone] and `COc1ccc(-c2nc(C(F)F)c(C(=O)N3CCc4[nH]cnc4[C@H]3c3nc4cccc(F)c4o3)o2)nc1` [Example 616, (S)-(4-(difluoromethyl)-2-(5-methoxypyridin-2-yl)oxazol-5-yl)(4-(7-fluorobenzo[d]oxazol-2-yl)-6,7-dihydro-1H-imidazo[4,5-c]pyridin-5(4H)-yl)methanone] cannot be ordered by AC50: 0.5 to 1 µM for the first, at most 0.5 µM for the second.

Compared with `CC(C)(O)c1nc(C(F)F)c(C(=O)N2CCc3[nH]cnc3[C@H]2c2nc3ccc(F)c(F)c3o2)o1` [Example 297, (S)-(4-(6,7-difluorobenzo[d]oxazol-2-yl)-6,7-dihydro-1H-imidazo[4,5-c]pyridin-5(4H)-yl)(4-(difluoromethyl)-2-(2-hydroxypropan-2-yl)oxazol-5-yl)methanone], `Cc1nc(C(C)(C)O)oc1C(=O)N1CCc2[nH]cnc2[C@@H]1c1nc2cccc(F)c2o1` [Example 267, (R)-(4-(7-fluorobenzo[d]oxazol-2-yl)-6,7-dihydro-1H-imidazo[4,5-c]pyridin-5(4H)-yl)(2-(2-hydroxypropan-2-yl)-4-methyloxazol-5-yl)methanone] is higher in AC50: at most 0.5 µM for the first, 1 to 5 µM for the second.

First: CC(O)c1nc(Br)c(C(=O)N2CCc3[nH]cnc3[C@H]2c2nc3cc(F)ccc3o2)o1 (single isomer, unassigned) [Example 225]
Second: Cc1nc(-c2ccccn2)oc1C(=O)N1CCc2[nH]cnc2[C@H]1c1nc2cccc(F)c2o1 [Example 594, (S)-(4-(7-fluorobenzo[d]oxazol-2-yl)-6,7-dihydro-1H-imidazo[4,5-c]pyridin-5(4H)-yl)(4-methyl-2-(pyridin-2-yl)oxazol-5-yl)methanone]
The AC50 of the first is higher: 1 to 5 µM for the first, at most 0.5 µM for the second.

same assay, conditions: A375 cells expressing R408W PAH; 24 hrs with compound, then 20 μM sepiapterin and 800 μM 13C9,15N-Phenylalanine for 4 hours; 13C-Tyrosine by LC-MS; average where tested multiple times

`O=C(c1nnc(C2CC(F)(F)C2)o1)N1CCc2[nH]cnc2C1c1nc2cc(F)ccc2o1` (stereo not drawn) and `COCc1nnc(C(=O)N2CCc3[nH]cnc3C2c2nc3cc(F)ccc3o2)o1` (stereo not drawn) cannot be ordered by AC50: 1 to 5 µM for the first, at least 5 µM for the second.

`O=C(c1cnc(-c2ccccn2)s1)N1CCc2[nH]cnc2C1c1nc2ccc(Br)cc2o1` (stereo not drawn) and `O=C(c1ccnn1-c1ccccn1)N1CCc2[nH]cnc2C1c1nc2ccccc2o1` (stereo not drawn) fall in the same range of AC50: 1 to 5 µM for the first, 1 to 5 µM for the second.
